The text below walks through data of ChEMBL document CHEMBL1158436, “In vitro inhibition of human erythrocyte glutathione reductase by some new organic nitrates” (Bioorg Med Chem Lett, 2009).

The assay has as its target T1, Glutathione reductase, mitochondrial (Homo sapiens, UniProt P00390).
T1 sequence (P00390 whole entry): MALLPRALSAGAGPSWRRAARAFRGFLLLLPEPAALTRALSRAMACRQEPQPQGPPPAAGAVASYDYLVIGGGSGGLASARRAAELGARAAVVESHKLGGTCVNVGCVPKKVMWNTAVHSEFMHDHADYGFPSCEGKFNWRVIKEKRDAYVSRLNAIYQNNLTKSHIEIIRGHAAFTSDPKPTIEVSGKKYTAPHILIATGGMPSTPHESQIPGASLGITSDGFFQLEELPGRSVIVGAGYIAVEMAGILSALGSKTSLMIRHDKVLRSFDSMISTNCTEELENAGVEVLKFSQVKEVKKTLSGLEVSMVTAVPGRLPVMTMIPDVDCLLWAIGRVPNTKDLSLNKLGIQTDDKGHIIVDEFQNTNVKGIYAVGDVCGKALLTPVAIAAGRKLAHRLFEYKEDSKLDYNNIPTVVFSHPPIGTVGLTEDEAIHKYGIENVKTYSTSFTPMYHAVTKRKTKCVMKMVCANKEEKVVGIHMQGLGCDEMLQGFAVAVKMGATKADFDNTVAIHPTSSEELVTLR
Put plainly: Inhibition of human erythrocyte glutathione reductase.

Broadly, the IC50 is the concentration needed to halve the response being measured. Low values mean greater potency, high ones weaker potency. The term Ki denotes the dissociation constant of the complex between target and ligand, obtained from inhibition or displacement. `O=[N+]([O-])O[C@H]1CC2CCC1[C@@H]2O` (stereo partly drawn) came in with an IC50 of 7.13 µM and a Ki of 13.1 µM.

Take `O=[N+]([O-])O[C@@H]1CC2CCC1[C@@H]2O` (stereo partly drawn): inhibition was half-maximal at 6.81 µM (IC50) and the Ki is 11.7 µM.

In the case of `O=[N+]([O-])O[C@@H]1CC[C@H](Br)[C@@H]2CC[C@H]1O2`, inhibition was half-maximal at 11 µM (IC50) and affinity was put at a Ki of 21.5 µM.

`O=[N+]([O-])O[C@H]1CCCCCC[C@@H]1O` registered an IC50 of 14.2 µM and a Ki of 21.9 µM.

Take `O=[N+]([O-])OC1CC2c3ccccc3C1C2O` (stereo not drawn): half-maximal inhibition (IC50) was put at 10.3 µM and the affinity, expressed as Ki, was 18.8 µM.

For `O=[N+]([O-])O[C@H]1CCCC[C@@H]1O`, the IC50 stood at 21 µM and the affinity corresponds to a Ki of 43.7 µM.

With `O=[N+]([O-])O[C@H]1CC=CC[C@@H]1O` (racemic), inhibition was half-maximal at 23 µM (IC50) and affinity was put at a Ki of 35.1 µM.

Consider `O=[N+]([O-])O[C@H]1CC/C=C\CC[C@@H]1O` (racemic), for which the 50% inhibitory concentration (IC50) amounted to 29 µM and the affinity corresponds to a Ki of 44.3 µM.

The compound `O=[N+]([O-])O[C@@H](CO)c1ccccc1` (single isomer, unassigned) showed an IC50 of 16 µM and an inhibition constant Ki of 25.6 µM.
